{"source": "ChEMBL document CHEMBL1201862", "about": "“PubChem BioAssay data set” (2004)", "key": {"Transthyretin": {"target": "Transthyretin (Homo sapiens, UniProt P02766)", "assay": "Luminescence-based cell-based high throughput dose response assay to identify activators of Transthyretin (TTR) transcription.", "assay_type": "functional"}, "[1]": {"assay": "A Cell-Based Confirmatory Screen for Compounds that Inhibit VEEV, TC-83 (5).", "assay_type": "functional"}, "[2]": {"target": "Sphingosine 1-phosphate receptor 2 (Homo sapiens, UniProt O95136)", "sequence (O95136 whole entry)": "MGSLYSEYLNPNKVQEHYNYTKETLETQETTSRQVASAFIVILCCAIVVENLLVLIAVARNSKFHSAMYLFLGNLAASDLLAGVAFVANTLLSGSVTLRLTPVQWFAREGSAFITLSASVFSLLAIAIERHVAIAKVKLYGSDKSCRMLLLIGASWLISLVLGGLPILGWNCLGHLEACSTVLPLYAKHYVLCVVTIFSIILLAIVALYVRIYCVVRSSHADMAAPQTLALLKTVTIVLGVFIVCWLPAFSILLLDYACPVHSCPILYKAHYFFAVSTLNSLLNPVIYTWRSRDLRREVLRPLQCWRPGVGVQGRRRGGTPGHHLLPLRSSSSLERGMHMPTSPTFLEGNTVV", "assay": "Dose Response Cell Based Assay for Agonists of the S1P2 Receptor. [Related pubchem assays: 729, 736, 843 ]", "assay_type": "functional"}, "[3]": {"assay": "inhibitors of non-replicating M. tuberculosis, dose response, luciferase, dry powder (AID 651619)", "assay_type": "functional", "settings": "Mycobacterium tuberculosis"}, "[4]": {"assay": "growth inhibition of replicating M. tuberculosis, dose response, counter-screen, dry powder, IC90 (AID 651617)", "assay_type": "functional", "settings": "Mycobacterium tuberculosis"}, "[5]": {"assay": "inhibitors of non-replicating M. tuberculosis, dose response, luciferase, dry powder (AID 651620)", "assay_type": "functional", "settings": "Mycobacterium tuberculosis"}, "[6]": {"assay": "IC50 of insulin release inhibition, rat insulinoma INS-1E line, 5 mM glucose, cell-based (AID 1117331)", "assay_type": "functional"}, "cells": {"assay": "cells", "assay_type": "functional, cell-based", "settings": "INS-1E"}, "[7]": {"assay": "rise of 2N DNA cells, HeLa – IC50, dose response (AID 1117349)", "assay_type": "functional, cell-based"}, "[8]": {"assay": "rise of 4N DNA cells, HeLa – IC50, dose response (AID 1117351)", "assay_type": "functional, cell-based"}, "[9]": {"assay": "Late stage assay provider results from the probe development effort to identify inhibitors of the Plasmodium falciparum M18 Aspartyl Aminopeptidase (M18AAP): radiolabel-based cell-based dose response assay to identify compounds that inhibit P. falciparum growth in RBCs, Set 2..", "assay_type": "functional"}, "[10]": {"target": "T1, Low molecular weight phosphotyrosine protein phosphatase (Homo sapiens, UniProt P24666)", "T1 sequence (P24666 whole entry)": "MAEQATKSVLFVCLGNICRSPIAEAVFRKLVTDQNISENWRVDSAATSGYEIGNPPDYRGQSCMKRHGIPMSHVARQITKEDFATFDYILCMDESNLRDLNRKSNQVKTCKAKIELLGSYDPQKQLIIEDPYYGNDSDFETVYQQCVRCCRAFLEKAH", "assay": "inhibition of human LMPTP enzyme activity – biochemical, absorbance, pNPP substrate, LMPTP-A isoform, set 2, orthogonal assay, dose response (AID 743308)", "assay_type": "functional"}, "[11]": {"target": "T1, Low molecular weight phosphotyrosine protein phosphatase", "assay": "inhibition of LMPTP-A enzymatic activity – biochemical, OMFP substrate, fluorescence intensity, set 2, dose response (AID 743307)", "assay_type": "functional"}, "[12]": {"target": "RNA-editing ligase 1, mitochondrial (Trypanosoma brucei brucei, UniProt P86926)", "sequence (P86926 whole entry)": "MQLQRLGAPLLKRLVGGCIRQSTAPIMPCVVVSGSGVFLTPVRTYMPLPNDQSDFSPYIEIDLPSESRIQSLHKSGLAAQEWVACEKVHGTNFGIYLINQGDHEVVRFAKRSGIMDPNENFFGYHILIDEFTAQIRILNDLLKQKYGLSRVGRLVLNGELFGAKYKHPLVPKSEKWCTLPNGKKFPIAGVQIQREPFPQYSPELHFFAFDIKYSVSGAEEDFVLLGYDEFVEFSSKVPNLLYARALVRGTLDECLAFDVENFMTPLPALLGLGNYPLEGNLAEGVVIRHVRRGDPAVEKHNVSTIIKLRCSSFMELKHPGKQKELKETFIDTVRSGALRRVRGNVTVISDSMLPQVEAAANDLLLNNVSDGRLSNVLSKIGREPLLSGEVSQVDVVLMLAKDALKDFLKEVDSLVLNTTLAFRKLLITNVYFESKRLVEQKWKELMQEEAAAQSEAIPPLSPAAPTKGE", "assay": "inhibition of trypanosome RNA editing ligase – biochemical, fluorescence, Trypanosoma brucei, dose response (AID 1117295)", "assay_type": "functional"}, "Genome polyprotein": {"target": "Genome polyprotein (Hepatitis C virus, UniProt Q2Q167)", "sequence (Q2Q167 whole entry)": "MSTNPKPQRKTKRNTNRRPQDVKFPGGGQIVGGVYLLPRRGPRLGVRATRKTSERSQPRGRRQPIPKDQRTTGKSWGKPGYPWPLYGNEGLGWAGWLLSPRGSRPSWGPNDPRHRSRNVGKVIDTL", "assay": "disruption of hepatitis C core self-association – biochemical, TR-FRET, dose response (AID 2159);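 note: blocks dimerization of HCV core protein measured by TR-FRET between tagged core106 pairs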", "design": "species or system Hepacivirus hominis"}}, "note": "Counter-ions that a name gives are not always drawn. The source made the active and inactive calls.", "data": [{"compound": "Oc1cc(O)c2sc(Nc3ccc(Cl)c(F)c3)nc2n1", "values": [{"measurement": "EC50", "setting": "Transthyretin", "result": "> 167 µM (inactive)"}]}, {"compound": "CCN1CCN(Cc2nc3ccc(I)cc3c(=O)n2-c2ccccc2)CC1", "values": [{"measurement": "IC50", "setting": "[1]", "result": "17.1 µM (active)"}]}, {"compound": "Cc1ccc(Cn2cccc(-c3nc4ccccc4s3)c2=O)cc1", "values": [{"measurement": "EC50", "setting": "[2]", "result": "4.14 µM (active)"}]}, {"compound": "Cc1ccc(-c2nnc(SCc3ccccn3)o2)cc1", "values": [{"measurement": "IC90", "setting": "[3]", "result": "4 µM (active)"}, {"measurement": "IC90", "setting": "[4]", "result": "62 µM (active)"}, {"measurement": "IC90", "setting": "[5]", "result": "4 µM (active)"}]}, {"compound": "CCN(CCCCOC(=O)c1ccc(OC)c(OC)c1)C(C)Cc1ccc(OC)cc1", "note": "(stereo not given) [MEBEVERINE HYDROCHLORIDE]", "values": [{"measurement": "IC50", "setting": "[6]", "result": "1.95 µM (active)"}, {"measurement": "IC50", "setting": "cells", "result": "> 33.3 µM (inactive)"}, {"measurement": "IC50", "setting": "[7]", "result": "> 10 µM (inactive)"}, {"measurement": "IC50", "setting": "[8]", "result": "> 10 µM (inactive)"}]}, {"compound": "COc1cc(Br)c(CCNc2c3ccccc3nc3ccccc23)cc1OC", "values": [{"measurement": "IC50", "setting": "[9]", "result": "300 nM (active)"}]}, {"compound": "c1ccc(-c2nc(NC3CC3)c3ccccc3n2)cc1", "values": [{"measurement": "IC50", "setting": "[10]", "result": "> 80 µM (inactive)"}, {"measurement": "IC50", "setting": "[11]", "result": "48.1 µM (inactive)"}]}, {"compound": "COC(=O)C1=C(C)N(Cc2ccccc2C(F)(F)F)C(NCc2ccc(OC)cc2)=NC1c1ccc(Cl)cc1", "note": "(stereo not given)", "values": [{"measurement": "IC50", "setting": "[12]", "result": "> 96.6 µM (inactive)"}]}, {"compound": "CC1(C)Cc2c(C#N)c(N3CCN(C(=O)c4ccco4)CC3)nc(-c3ccco3)c2CS1", "values": [{"measurement": "IC50", "setting": "Genome polyprotein", "result": "> 49.8 µM (not active)"}]}]}
